According to patent US20250025493A1, “GLUCOHEXAOSE AND PREPARATION METHOD THEREFOR AND APPLICATION THEREOF, AND HAIR REGENERATION PREPARATION” (UNIVERSITY OF MACAU, priority 2021, published 2025):

Legend:
[1] = system: mouse bone marrow-derived macrophages (mBMDM); assay: Induction and activation experiment on macrophages, eukaryotic mRNA sequencing of released cytokines; assay type: cell-based, mouse (C57BL/6J); conditions: 50 ug/ml, 24 h co-incubation, vs PBS group, FIG. 1
Procedure: The gulcohexaose sample prepared in example 1 above was used to perform an induction and activation experiment on mouse bone marrow-derived macrophages (mBMDM, primary cells extracted from C57BL/6J mice by laboratory methods):
Mouse bone marrow-derived monocytes (5×10^6 cells/10 cm petri dish) were seeded in 10 cm petri dishes and cultured using L929 cell culture supernatant obtained after 7 days of culture+RPMI-1640 medium+10% fetal bovine serum+1% penicillin-streptomycin in a 37° C., 5% CO2 incubator. After cell adherence, the cells were co-incubated with 50 ug/ml gulcohexaose for 24 h, designated as OG6 group, while a blank group (an experimental group to which the gulcohexaose was not added and to which an equal volume (10 μl) of PBS buffer (mainly consisted of Na2HPO4, KH2PO4, NaCl and KCl) was added) was set up, designated as PBS group. After 24 h of co-incubation, the total RNA was extracted from the sample using TRIzol (Invitrogen), eukaryotic mRNA sequencing experiment analysis and bioinformatics analysis were performed, and the difference between the expression level of cytokines released by the mouse bone marrow-derived macrophages stimulated by the gulcohexaose and the expression level of cytokines released in the blank group was compared. This experiment was repeated twice.

[2] = system: Ccl5 gene in mouse bone marrow-derived macrophages (mBMDM); assay: Verification experiment, real-time fluorescence quantitative PCR of Ccl5 gene expression in macrophages; assay type: cell-based, mouse (C57BL/6J); conditions: 50 ug/ml, FIG. 2
Text: To verify the experimental results of eukaryotic mRNA sequencing analysis, a real-time fluorescence quantitative PCR experiment was used to determine the expression level of Ccl5 gene in macrophages stimulated by the gulcohexaose. The gulcohexaose prepared in example I was used to perform an induction and activation experiment on mouse bone marrow-derived macrophages (mBMDM, primary cells extracted from C57BL/6J mice by laboratory methods): • mouse bone marrow-derived monocytes (5×10^6 cells/10 cm petri dish) were seeded in 10 cm petri dishes and cultured using L929 cell culture supernatant obtained after 7 days of culture+RPMI-1640 medium+10% fetal bovine serum+1% penicillin-streptomycin in a 37° C., 5% CO2 incubator. […] After co-incubation for different time periods, the total RNA was extracted from the samples respectively, and the expression levels of Ccl5 cytokine in mouse bone marrow-derived macrophages before and after the stimulation by the gulcohexaose were detected by real-time quantitative PCR.

[3] = system: hair follicles in back unhairing area, androgenetic alopecia (AGA) mouse model; assay: Animal experiment, subcutaneous injection, mouse model of androgenetic alopecia (AGA); assay type: in vivo, C57BL/6J mice; conditions: subcutaneous injection on D-0, D-7, D-14, FIG. 4
Text: (§1) The method is as follows: healthy male 7-week-old C57BL/6J mice were subjected to back unhairing treatment, wherein the hair on the back area was completely removed using an unhairing cream (Veet); starting from D-0, testosterone was topically applied to the back unhairing area of the mice every day to simulate androgenetic alopecia (AGA), and the hair growth of the mice was photographed for recording; the gulcohexaose was subcutaneously injected to the back unhairing area of the mice every seven days (D-0, D-7, D-14), designated as OG6 group; a blank group (no applying) was set up, designated as a control group; and the hair growth on the back of the mice was observed on day 21.

[4] = system: hair follicles in back unhairing area, androgenetic alopecia (AGA) mouse model; assay: Animal experiment, direct application, mouse model of androgenetic alopecia (AGA); assay type: in vivo, C57BL/6J mice; conditions: direct topical application on D-0, D-7, D-14, FIG. 3
Text: The gulcohexaose sample prepared in example 1 was investigated for the biological effect in promoting hair follicle regeneration.
The method is as follows: healthy male 7-week-old C57BL/6J mice were subjected
as §1, with “to” for “The method is as follows: healthy male 7-week-old C57BL/6J mice were subjected to”, “establish a mouse model of” for “simulate”, “directly and topically applied” for “subcutaneously injected”

[5] = system: hair follicles in back unhairing area, androgenetic alopecia (AGA) mouse model; assay: Animal experiment, microneedle administration, mouse model of androgenetic alopecia (AGA); assay type: in vivo, C57BL/6J mice; conditions: microneedle administration on D-0, D-7, D-14, FIG. 5
Text: as §1, with “(AGA) for modeling,” for “(AGA),”, “microneedle administered” for “subcutaneously injected”

[6] = system: androgenetic alopecia in mouse models; assay: Treatment of androgenetic alopecia in mouse models, summary over all administration routes; assay type: in vivo, mice; conditions: direct skin application, subcutaneous injection or microneedle release administration
Text: The glucohexaose used in the present disclosure can be used to treat androgenetic alopecia in mouse models via any one of direct skin application administration, subcutaneous injection administration and microneedle release administration, and the hair formation is observed.

Substance: Man-Man-Man-Man-Glc-Glc [gulcohexaose]
- expression level of cytokines released by macrophages versus blank group (mRNA sequencing) [1]: can specifically activate macrophages to release a cytokine network mainly comprising CCL5 chemotactic factors
- expression level of Ccl5 cytokine in macrophages (real-time quantitative PCR) ([2]; 1 h, 12 h and 24 h, vs PBS group): rapidly upregulate the expression level of Ccl5 cytokine
- expression level of Ccl5 cytokine in macrophages after 24 hours of stimulation ([2]; 24 h): high expression level of Ccl5 cytokine in macrophages maintained
- hair growth on day 21 compared with blank group ([3]; day 21): obviously superior to that on the mice in the blank group
- hair follicle stage in back treatment area compared with blank group ([3]; testosterone-induced AGA mice): have entered a growth period from a resting period and grew hair
- hair growth on day 21 compared with blank group ([4]; day 21): obviously superior to that on the mice in the blank group
- hair follicle stage in back treatment area compared with blank group ([4]; testosterone-induced AGA mice): have entered a growth period from a resting period and grew hair
- hair growth at treated part compared with blank group ([5]; observed day 21): obviously denser than that on the mice in the blank group
- hair follicle stage in back treatment area compared with blank group ([5]; testosterone-induced AGA mice): the first to enter a growth period from a resting period and are the first to grow hair
- adverse reactions [6]: without any serious adverse reactions
- growth of hair on the back of mice [6]: can effectively promote the growth of hair on the back of mice
